The record followed here is ChEMBL document CHEMBL5500364, “Design, synthesis, and biological evaluation of some 2-(3-oxo-5,6-diphenyl-1,2,4-triazin-2(3H)-yl)-N-phenylacetamide hybrids as MTDLs for Alzheimer's disease therapy” (Eur J Med Chem, 2024).

The source made the active and inactive calls. The calls are words filed in the database; no cut-off is given here.

The target of one data set is Beta-secretase 1 (Homo sapiens, UniProt P56817). The data set can be described thus: Inhibition of human BACE-1 using (7-Methoxycoumarin-4-acetyl-[Asn670, Leu671]-Amyloid beta/A4 precursor protein 770 fragments 667-676- (2, 4-dinitrophenyl) Lys-Arg-Arg amide trifluoroacetate salt as substrate incubated for 2 hrs by FRET-based analysis.
Sequence of Beta-secretase 1 (P56817 whole entry, the tested form may be a part): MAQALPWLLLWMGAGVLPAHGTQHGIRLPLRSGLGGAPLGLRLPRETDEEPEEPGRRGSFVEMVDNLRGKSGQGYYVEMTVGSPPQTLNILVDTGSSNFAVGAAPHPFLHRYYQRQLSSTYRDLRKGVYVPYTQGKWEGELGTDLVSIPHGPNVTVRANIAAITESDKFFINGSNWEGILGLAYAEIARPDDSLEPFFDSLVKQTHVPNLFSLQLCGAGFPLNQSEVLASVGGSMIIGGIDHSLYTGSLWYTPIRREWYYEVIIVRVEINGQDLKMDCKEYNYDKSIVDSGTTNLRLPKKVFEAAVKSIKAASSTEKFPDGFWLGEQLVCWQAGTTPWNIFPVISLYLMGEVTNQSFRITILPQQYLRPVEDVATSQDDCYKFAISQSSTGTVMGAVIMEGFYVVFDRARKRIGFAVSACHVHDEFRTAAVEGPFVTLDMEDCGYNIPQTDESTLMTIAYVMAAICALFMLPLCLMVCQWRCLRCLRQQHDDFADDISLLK
The next data set has as its target Cholinesterase (Homo sapiens, UniProt P06276). As to the kind of experiment: Inhibition of human BChE using butyrylthiocholine iodide as substrate preincubated for 30 mins followed by substrate addition by DTNB based Ellman's colorimetric method. In general terms: DTNB colorimetry detects thiols as they appear.
Data set [1] has as its target Dual specificity tyrosine-phosphorylation-regulated kinase 1A (Homo sapiens, UniProt Q13627). The data set can be described thus: Inhibition of Dyrk1A (unknown origin) incubated for 1 hrs in presence of [gamma-33P]-ATP by microplate scintillation counter based radiometric protein kinase assay.
For another data set, the target named is Acetylcholinesterase (Homo sapiens, UniProt P22303). As to the kind of experiment: Inhibition of human erythrocyte AChE using acetylthiocholine iodide as substrate preincubated for 30 mins followed by substrate addition by DTNB based Ellman's colorimetric method.
Sequence of Acetylcholinesterase (P22303 whole entry): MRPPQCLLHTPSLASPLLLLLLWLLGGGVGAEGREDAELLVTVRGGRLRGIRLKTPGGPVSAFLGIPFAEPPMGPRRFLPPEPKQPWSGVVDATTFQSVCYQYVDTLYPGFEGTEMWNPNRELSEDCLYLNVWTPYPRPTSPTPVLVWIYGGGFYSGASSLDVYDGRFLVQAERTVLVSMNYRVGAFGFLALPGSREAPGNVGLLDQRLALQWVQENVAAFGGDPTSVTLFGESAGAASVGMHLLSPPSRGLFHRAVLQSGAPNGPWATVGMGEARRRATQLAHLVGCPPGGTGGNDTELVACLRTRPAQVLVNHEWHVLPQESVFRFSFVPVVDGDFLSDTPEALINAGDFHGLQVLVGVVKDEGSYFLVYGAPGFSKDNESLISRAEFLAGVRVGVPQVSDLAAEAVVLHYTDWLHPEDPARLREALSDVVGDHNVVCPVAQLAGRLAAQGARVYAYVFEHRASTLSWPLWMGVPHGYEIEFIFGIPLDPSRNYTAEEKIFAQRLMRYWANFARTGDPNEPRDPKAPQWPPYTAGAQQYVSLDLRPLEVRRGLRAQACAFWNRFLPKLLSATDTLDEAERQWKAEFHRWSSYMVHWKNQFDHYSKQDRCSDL
Data set [2] addresses Amyloid-beta precursor protein (Homo sapiens) (UniProt P05067). As to the kind of experiment: Inhibition of amyloid beta (1 to 42) (unknown origin) aggregation assessed as reduction in size of amyloid-beta aggregates measured within 48 hrs by SEM imaging analysis.
For data set [3] the target is unchanged. The data set can be described thus: Inhibition of amyloid beta (1 to 42) (unknown origin) aggregation assessed as appearance of thinner aggregates at 50 uM incubated for 48 hrs by TEM imaging analysis.
Data set [4] has the same target. As to the kind of experiment: Inhibition of amyloid beta (1 to 42) (unknown origin) aggregation assessed as reduction in amyloid-beta aggregates at 50 uM incubated for 48 hrs by TEM analysis.
For data set [5] the target is unchanged. The data set can be described thus: Inhibition of amyloid beta (1 to 42) (unknown origin) aggregation assessed as maximum peak height of aggregates incubated for 48 hrs by AFM analysis.
Data set [6] shares this target. As to the kind of experiment: Inhibition of amyloid beta (1 to 42) (unknown origin) self aggregation ar 5 to 20 uM incubated for 48 hrs by Thioflavin T fluorescence assay relative to control. To be noted: dose 5-20 µM.
Data set [7] can be described thus: Permeability of compound in PBS at pH 7.4 incubated for 18 hrs by PAMPA-BBB assay.
Data set [8] deals with Amyloid-beta precursor protein (Homo sapiens) (UniProt P05067). The data set can be described thus: Inhibition of human AchE-induced amyloid beta (1 to 42) (unknown origin) aggregation at 5 to 20 uM incubated for 48 hrs by Thioflavin T fluorescence assay relative to control. To be noted: dose 5-20 µM.
Sequence of Amyloid-beta precursor protein (Homo sapiens) (P05067 whole entry): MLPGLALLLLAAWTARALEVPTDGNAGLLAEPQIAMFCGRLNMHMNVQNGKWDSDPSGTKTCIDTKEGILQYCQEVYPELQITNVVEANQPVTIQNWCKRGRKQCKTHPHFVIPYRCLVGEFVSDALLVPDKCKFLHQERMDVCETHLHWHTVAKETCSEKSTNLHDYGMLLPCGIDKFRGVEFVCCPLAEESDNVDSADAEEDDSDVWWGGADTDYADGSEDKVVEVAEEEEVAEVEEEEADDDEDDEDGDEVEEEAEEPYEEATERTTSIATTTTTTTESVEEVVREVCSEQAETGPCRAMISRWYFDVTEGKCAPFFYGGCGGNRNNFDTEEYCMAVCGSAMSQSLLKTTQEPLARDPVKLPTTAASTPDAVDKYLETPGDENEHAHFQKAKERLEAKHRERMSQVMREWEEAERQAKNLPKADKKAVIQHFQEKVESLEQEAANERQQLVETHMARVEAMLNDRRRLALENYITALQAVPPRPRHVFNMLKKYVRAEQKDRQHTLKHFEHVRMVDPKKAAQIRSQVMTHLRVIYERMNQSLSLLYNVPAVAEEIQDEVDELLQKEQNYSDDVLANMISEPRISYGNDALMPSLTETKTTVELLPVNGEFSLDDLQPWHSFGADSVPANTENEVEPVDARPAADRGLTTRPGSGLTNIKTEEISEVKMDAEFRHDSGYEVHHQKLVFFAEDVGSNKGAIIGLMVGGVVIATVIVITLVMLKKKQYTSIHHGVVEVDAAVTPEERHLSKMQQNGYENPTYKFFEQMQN
The test system of data set [9] is SH-SY5Y. As to the kind of experiment: Neuroprotective activity against amyloid-beta(1 to 42) induced oxidative stress in differentiated human SH-SY5Y cells assessed as increase in cell viability at 40 uM preincubated with amyloid-beta (1 to 42 ) for 24 hrs followed by compound addition and measured after 48 hrs by MTT assay relative to control. It is filed as functional. For orientation: Tetrazolium dyes change colour on reduction, which living cells bring about.

In data set [10] the test system is SH-SY5Y. The data set can be described thus: Neuroprotective activity against amyloid-beta(1 to 42) induced oxidative stress in differentiated human SH-SY5Y cells assessed as increase in cell viability at 40 uM preincubated with amyloid-beta (1 to 42 ) for 24 hrs followed by compound addition and measured after 72 hrs by MTT assay relative to control. It is filed as functional.

Data set [11] is described as follows: Neurotoxicity in human SH-SY5Y cells assessed as reduction in cell population at 80 uM incubated for 24 hrs by MTT assay.

Sequence of Cholinesterase (P06276 whole entry): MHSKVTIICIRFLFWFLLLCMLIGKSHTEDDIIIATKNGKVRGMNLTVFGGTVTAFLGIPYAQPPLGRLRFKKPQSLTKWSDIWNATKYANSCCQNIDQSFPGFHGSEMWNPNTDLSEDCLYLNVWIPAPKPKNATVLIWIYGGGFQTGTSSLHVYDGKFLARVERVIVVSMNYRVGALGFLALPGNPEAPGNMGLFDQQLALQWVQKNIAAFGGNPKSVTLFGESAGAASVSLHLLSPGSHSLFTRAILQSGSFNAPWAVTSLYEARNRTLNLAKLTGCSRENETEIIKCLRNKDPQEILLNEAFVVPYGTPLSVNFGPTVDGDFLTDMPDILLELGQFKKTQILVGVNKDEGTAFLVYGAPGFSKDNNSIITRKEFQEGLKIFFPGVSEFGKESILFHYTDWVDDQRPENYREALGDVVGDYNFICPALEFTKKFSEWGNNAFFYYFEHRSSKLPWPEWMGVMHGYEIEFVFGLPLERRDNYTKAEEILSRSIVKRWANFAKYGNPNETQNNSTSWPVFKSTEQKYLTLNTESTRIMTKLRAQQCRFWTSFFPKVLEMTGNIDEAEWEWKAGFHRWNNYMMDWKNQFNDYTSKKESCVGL

Turning to `Cc1ccccc1NC(=O)Cn1nc(-c2ccccc2)c(-c2ccccc2)nc1=O`, the IC50 was 0.742 µM on Beta-secretase 1, greater than 10 µM at Cholinesterase, greater than 10 µM in [1] and 0.953 µM at Acetylcholinesterase.

As to `N#Cc1ccccc1NC(=O)Cn1nc(-c2ccccc2)c(-c2ccccc2)nc1=O`, the IC50 on Beta-secretase 1 was 1.48 µM; against Cholinesterase it was greater than 10 µM; in data set [1] it was greater than 10 µM; against Acetylcholinesterase, 1.86 µM.

`O=C(Cn1nc(-c2ccccc2)c(-c2ccccc2)nc1=O)Nc1ccc([N+](=O)[O-])cc1Cl`: the concentration for half-maximal inhibition (IC50) at Beta-secretase 1 is 1.83 µM; against Cholinesterase, greater than 10 µM; in [1] it was 2 µM; against Acetylcholinesterase, 0.699 µM.

`O=C(Cn1nc(-c2ccccc2)c(-c2ccccc2)nc1=O)Nc1ccc(O)cc1`: the half-maximal inhibitory concentration (IC50) at Beta-secretase 1 is 1.62 µM; against Cholinesterase, greater than 10 µM; in [1], greater than 10 µM; at Acetylcholinesterase, 1.15 µM.

As for `O=C(Cn1nc(-c2ccccc2)c(-c2ccccc2)nc1=O)Nc1ccc(F)cc1F`, the half-maximal inhibitory concentration (IC50) on Beta-secretase 1 is 1.44 µM; on Cholinesterase, greater than 10 µM; in data set [1] it was greater than 10 µM; against Acetylcholinesterase, 1.16 µM.

For `O=C(Cn1nc(-c2ccccc2)c(-c2ccccc2)nc1=O)Nc1ccc(Br)cc1`, the 50% inhibitory concentration (IC50) was 1.86 µM on Beta-secretase 1, greater than 10 µM against Cholinesterase, greater than 10 µM in [1] and 0.941 µM against Acetylcholinesterase.

Take `O=C(Cn1nc(-c2ccccc2)c(-c2ccccc2)nc1=O)Nc1ccc([N+](=O)[O-])cc1`: the half-maximal inhibitory concentration (IC50) on Beta-secretase 1 is 1.32 µM; against Cholinesterase, greater than 10 µM; in data set [1] it was greater than 10 µM; against Acetylcholinesterase it was 1.07 µM.

On to `N#Cc1cccc(NC(=O)Cn2nc(-c3ccccc3)c(-c3ccccc3)nc2=O)c1`, for which the IC50 at Beta-secretase 1 was 1.1 µM; on Cholinesterase, greater than 10 µM; in [1], greater than 10 µM; against Acetylcholinesterase, 1.25 µM.

Take `O=C(Cn1nc(-c2ccccc2)c(-c2ccccc2)nc1=O)Nc1ccccc1O`: the IC50 was 0.953 µM on Beta-secretase 1, greater than 10 µM against Cholinesterase, greater than 10 µM in data set [1] and 0.753 µM against Acetylcholinesterase.

Regarding `COc1cc(/C=C/C(=O)CC(=O)/C=C/c2ccc(O)c(OC)c2)ccc1O`, the inhibition entry in [2], in data set [3] and in [4] was “Active” in each case. In data set [5], the Activity turned out to be 206 nm. The molecule also registered an inhibition in data set [6] of 21.5%.

For the molecule `O=C(Cn1nc(-c2ccccc2)c(-c2ccccc2)nc1=O)Nc1ccccc1[N+](=O)[O-]`, the half-maximal inhibitory concentration (IC50) is 0.912 µM at Beta-secretase 1, greater than 10 µM at Cholinesterase, greater than 10 µM in [1] and 0.734 µM on Acetylcholinesterase.

For `O=C(Cn1nc(-c2ccccc2)c(-c2ccccc2)nc1=O)Nc1ccc(Cl)cc1`, the IC50 was 1.93 µM on Beta-secretase 1, greater than 10 µM against Cholinesterase, greater than 10 µM in data set [1] and 1.41 µM at Acetylcholinesterase.

Regarding `O=C(Cn1nc(-c2ccccc2)c(-c2ccccc2)nc1=O)Nc1cc(Br)cc(Br)c1`, the half-maximal inhibitory concentration (IC50) was 1.25 µM at Beta-secretase 1, greater than 10 µM on Cholinesterase, greater than 10 µM in data set [1] and 0.772 µM against Acetylcholinesterase.

Take `O=C(Cn1nc(-c2ccccc2)c(-c2ccccc2)nc1=O)Nc1ccc(F)cc1`: the IC50 at Beta-secretase 1 is 0.694 µM; at Cholinesterase, greater than 10 µM; in [1], greater than 10 µM; at Acetylcholinesterase, 0.836 µM.

`COc1cc(NC(=O)Cn2nc(-c3ccccc3)c(-c3ccccc3)nc2=O)cc(OC)c1OC`: the IC50 at Beta-secretase 1 was 0.648 µM; on Cholinesterase it was greater than 10 µM; in [1], greater than 10 µM; on Acetylcholinesterase, 0.708 µM. In [7], this molecule came in with a Papp at 18 h of 5.81 ×10⁻⁶ cm/s. Further, the inhibition in data set [8] amounted to 33.6%; in data set [6], 19.3%. The Activity is reported as 71% in the data set with SH-SY5Y [9], 78% with SH-SY5Y [10] and “Non-Toxic” in data set [11].

In the case of `O=C(Cn1nc(-c2ccccc2)c(-c2ccccc2)nc1=O)Nc1ccccc1Cl`, the IC50 is 0.609 µM at Beta-secretase 1, greater than 10 µM against Cholinesterase, greater than 10 µM in data set [1] and 0.719 µM on Acetylcholinesterase.

Turning to `O=C(Cn1nc(-c2ccccc2)c(-c2ccccc2)nc1=O)Nc1cccc(Cl)c1`, the half-maximal inhibitory concentration (IC50) at Beta-secretase 1 is 1.44 µM; against Cholinesterase it was greater than 10 µM; in data set [1] it was greater than 10 µM; against Acetylcholinesterase it was 1.16 µM.

With `O=C(Cn1nc(-c2ccccc2)c(-c2ccccc2)nc1=O)Nc1cccc([N+](=O)[O-])c1`, the half-maximal inhibitory concentration (IC50) on Beta-secretase 1 was 1.25 µM; against Cholinesterase, greater than 10 µM; in [1], greater than 10 µM; against Acetylcholinesterase it was 1.12 µM.

Broadly, the IC50 is the concentration that gives 50% inhibition. What is called inhibition is the relative decrease from the control value, in per cent. In general, Papp refers to the rate of passage across a membrane or cell layer, normalised by area and donor concentration. Lower therefore signals slow passage.
